In patent publication US9073924B2, “Azaindazoles” (GlaxoSmithKline LLC, priority 2011, dated 2015):

Target: T1, EZH2 within the PRC2 complex (Homo sapiens, UniProt Q15910)
T1 construct: FLAG; made in house; host or cells: Sf9 cells
Assay: EZH2 methyltransferase scintillation proximity assay (SPA), PRC2 complex
Assay type: biochemical
Settings: inhibition of methyltransferase activity, 3H-SAM, HeLa mononucleosome substrate, foregoing or an analogous assay
Method: Compounds contained herein were evaluated for their ability to inhibit the methyltransferase activity of EZH2 within the PRC2 complex. Human PRC2 complex was prepared by co-expressing each of the 5 member proteins (FLAG-EZH2, EED, SUZ12, RbAp48, AEBP2) in Sf9 cells followed by co-purification. Enzyme activity was measured in a scintillation proximity assay (SPA) where a tritiated methyl group is transferred from 3H-SAM to a lysine residue on Histone H3 of a mononucleosome, purified from HeLa cells. Mononucleosomes were captured on SPA beads and the resulting signal is read on a ViewLux plate reader.
Part A. Compound Preparation
Prepare 10 mM stock of compounds from solid in 100% DMSO. • 2. Set up an 11-point serial dilution (1:3 dilution, top concentration 10 mM) in 100% DMSO for each test compound in a 384 well plate leaving columns 6 and 18 for DMSO controls. • 3. Dispense 100 nL of compound from the dilution plate into reaction plates (Grenier Bio-One, 384-well, Cat#784075). Part B. Reagent Preparation Prepare the following solutions: • 1. […] Read plates • 1. Read the assay plates on the Viewlux Plate Reader utilizing the 613 nm emission filter with a 300 s read time. […]
Percent inhibition was calculated relative to the DMSO control for each compound concentration and the resulting values were fit using standard IC50 fitting parameters within the ABASE data fitting software package.

T1 sequence (Q15910 whole entry): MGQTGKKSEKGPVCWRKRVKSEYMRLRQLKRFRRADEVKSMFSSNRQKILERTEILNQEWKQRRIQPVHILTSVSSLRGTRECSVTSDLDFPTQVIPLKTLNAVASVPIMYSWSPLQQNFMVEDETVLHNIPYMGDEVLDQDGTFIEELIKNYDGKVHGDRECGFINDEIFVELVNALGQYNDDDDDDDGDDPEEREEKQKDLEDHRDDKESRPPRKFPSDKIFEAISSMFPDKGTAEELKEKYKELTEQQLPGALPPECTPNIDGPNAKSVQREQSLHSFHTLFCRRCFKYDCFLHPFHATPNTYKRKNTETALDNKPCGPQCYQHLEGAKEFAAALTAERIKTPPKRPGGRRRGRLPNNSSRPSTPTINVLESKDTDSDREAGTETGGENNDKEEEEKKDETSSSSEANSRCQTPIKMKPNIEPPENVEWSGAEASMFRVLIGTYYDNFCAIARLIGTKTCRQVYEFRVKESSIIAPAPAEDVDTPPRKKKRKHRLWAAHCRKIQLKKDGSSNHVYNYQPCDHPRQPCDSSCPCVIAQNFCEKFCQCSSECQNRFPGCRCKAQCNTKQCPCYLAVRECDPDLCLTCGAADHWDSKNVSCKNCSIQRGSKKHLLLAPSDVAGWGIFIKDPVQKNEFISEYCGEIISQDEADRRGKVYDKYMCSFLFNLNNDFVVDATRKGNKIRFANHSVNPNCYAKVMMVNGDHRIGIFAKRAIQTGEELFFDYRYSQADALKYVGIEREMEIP
T1 sequence (O75530 whole entry partner): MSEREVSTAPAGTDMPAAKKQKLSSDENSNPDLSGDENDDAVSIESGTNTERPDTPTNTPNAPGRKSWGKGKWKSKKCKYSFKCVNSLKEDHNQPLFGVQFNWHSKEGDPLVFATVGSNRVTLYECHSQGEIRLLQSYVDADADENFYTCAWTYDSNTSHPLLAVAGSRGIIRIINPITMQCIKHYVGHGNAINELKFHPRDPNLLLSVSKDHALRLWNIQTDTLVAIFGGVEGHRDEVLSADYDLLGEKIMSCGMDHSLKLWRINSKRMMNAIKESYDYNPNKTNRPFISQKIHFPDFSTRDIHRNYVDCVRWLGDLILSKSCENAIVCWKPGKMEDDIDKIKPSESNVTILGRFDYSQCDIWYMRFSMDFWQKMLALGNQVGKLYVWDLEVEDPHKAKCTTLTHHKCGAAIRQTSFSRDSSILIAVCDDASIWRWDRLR
T1 sequence (Q15022 whole entry partner): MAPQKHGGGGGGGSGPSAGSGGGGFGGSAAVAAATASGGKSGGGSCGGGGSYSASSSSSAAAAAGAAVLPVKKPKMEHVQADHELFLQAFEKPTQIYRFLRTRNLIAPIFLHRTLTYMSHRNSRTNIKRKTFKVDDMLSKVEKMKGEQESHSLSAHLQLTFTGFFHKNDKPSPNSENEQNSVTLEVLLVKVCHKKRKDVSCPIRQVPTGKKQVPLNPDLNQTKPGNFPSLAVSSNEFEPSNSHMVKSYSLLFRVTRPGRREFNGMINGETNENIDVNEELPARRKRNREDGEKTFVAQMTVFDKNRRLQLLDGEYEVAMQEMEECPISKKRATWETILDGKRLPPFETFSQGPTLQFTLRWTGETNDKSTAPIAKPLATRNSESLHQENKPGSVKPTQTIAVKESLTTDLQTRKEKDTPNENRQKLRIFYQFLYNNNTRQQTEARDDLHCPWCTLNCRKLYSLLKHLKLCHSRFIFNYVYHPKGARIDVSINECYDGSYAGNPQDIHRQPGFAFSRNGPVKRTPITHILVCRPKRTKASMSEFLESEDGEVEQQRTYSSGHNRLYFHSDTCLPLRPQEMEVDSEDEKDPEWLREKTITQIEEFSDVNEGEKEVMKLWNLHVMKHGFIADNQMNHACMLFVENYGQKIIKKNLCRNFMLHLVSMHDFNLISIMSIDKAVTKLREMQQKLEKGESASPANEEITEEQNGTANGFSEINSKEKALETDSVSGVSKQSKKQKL
T1 sequence (Q09028 whole entry partner): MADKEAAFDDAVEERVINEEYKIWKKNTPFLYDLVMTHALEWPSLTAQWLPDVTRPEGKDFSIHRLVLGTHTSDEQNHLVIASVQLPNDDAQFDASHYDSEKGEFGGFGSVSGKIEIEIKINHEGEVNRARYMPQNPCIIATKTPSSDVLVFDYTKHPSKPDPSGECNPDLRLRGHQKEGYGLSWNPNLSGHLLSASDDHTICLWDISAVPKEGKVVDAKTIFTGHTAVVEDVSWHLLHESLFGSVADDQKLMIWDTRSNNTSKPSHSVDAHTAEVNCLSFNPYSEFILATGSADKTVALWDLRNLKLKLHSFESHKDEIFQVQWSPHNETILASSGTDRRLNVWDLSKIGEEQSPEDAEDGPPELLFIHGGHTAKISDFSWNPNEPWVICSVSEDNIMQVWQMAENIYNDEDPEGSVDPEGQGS
T1 sequence (Q6ZN18 whole entry partner): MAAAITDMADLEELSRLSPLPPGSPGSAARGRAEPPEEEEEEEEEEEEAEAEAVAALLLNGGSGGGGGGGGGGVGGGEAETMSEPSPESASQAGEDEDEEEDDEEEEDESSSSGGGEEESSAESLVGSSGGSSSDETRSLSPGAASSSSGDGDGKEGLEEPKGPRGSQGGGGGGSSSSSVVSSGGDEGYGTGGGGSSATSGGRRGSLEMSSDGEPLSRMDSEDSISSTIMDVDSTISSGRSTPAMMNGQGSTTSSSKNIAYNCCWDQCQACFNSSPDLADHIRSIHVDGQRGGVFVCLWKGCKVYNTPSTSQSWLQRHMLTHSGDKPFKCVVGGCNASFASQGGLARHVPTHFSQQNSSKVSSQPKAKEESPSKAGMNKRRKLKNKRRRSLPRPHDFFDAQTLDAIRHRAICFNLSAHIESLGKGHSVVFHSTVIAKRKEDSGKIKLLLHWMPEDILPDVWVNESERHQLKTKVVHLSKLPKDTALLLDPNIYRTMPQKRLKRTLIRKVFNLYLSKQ

Q: How did the IC50 turn out when “6-{[4-(Aminocarbonyl)phenyl]amino}-N-[(4,6-dimethyl-2-oxo-1,2-dihydro-3-pyridinyl)methyl]-1-(1-methylethyl)-1H-pyrazolo[3,4-b]pyridine-4-carboxamide [Ex 86]” was run?
A: 142 nM

Q: How did the IC50 turn out when “N-[(4,6-Dimethyl-2-oxo-1,2-dihydro-3-pyridinyl)methyl]-1-(1-methylethyl)-6-(2-phenylethyl)-1H-pyrazolo[3,4-b]pyridine-4-carboxamide [Ex 32]” was run?
A: 856 nM
